Measurements taken from ChEMBL document CHEMBL1201862, “PubChem BioAssay data set” (2004).
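Where inhibition never reached the appropriate level, the endpoint shown equals the highest concentration tested. Otherwise, values were interpolated linearly from a five-concentration, 48-hour dose response in 96-well plates. Abbreviation: GI50, concentration required for 50% inhibition of growth.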 The source made the active and inactive calls. Rule as the data show it: active = GI50 up to about 1.1 µM and inactive = higher.

Assays:
Assay in all cases: NCI-60 cell line screen, 48 h
SF-539 = system: SF-539
UACC-257 = system: UACC-257
MDA-MB-435 = system: MDA-MB-435
OVCAR-5 = system: OVCAR-5
SK-OV-3 = system: SK-OV-3
CCRF-CEM = system: CCRF-CEM
HCT-116 = system: HCT-116
NCI/ADR-RES = system: NCI/ADR-RES
OVCAR-4 = system: OVCAR-4
CAKI-1 = system: CAKI-1
SNB-75 = system: SNB-75
786-0 = system: 786-0
MDA-N = system: MDA-N
UACC-62 = system: UACC-62
M14 = system: M14
K562 = system: K562
HL-60 = system: HL-60
MCF7 = system: MCF7
SN12C = system: SN12C
U-251 = system: U-251
BT-549 = system: BT-549
TK-10 = system: TK-10
HCC 2998 = system: HCC 2998
NCI-H23 = system: NCI-H23
ACHN = system: ACHN
HT-29 = system: HT-29
SK-MEL-5 = system: SK-MEL-5
SK-MEL-28 = system: SK-MEL-28
HCT-15 = system: HCT-15
MDA-MB-231 = system: MDA-MB-231
OVCAR-8 = system: OVCAR-8
T47D = system: T47D
SK-MEL-2 = system: SK-MEL-2
SF-268 = system: SF-268
Hs-578T = system: Hs-578T
MOLT-4 = system: MOLT-4
SW-620 = system: SW-620
HOP-92 = system: HOP-92
NCI-H522 = system: NCI-H522
LOX IMVI = system: LOX IMVI
OVCAR-3 = system: OVCAR-3
NCI-H460 = system: NCI-H460
SF-295 = system: SF-295
EKVX = system: EKVX
HOP-62 = system: HOP-62
COLO 205 = system: COLO 205
IGROV-1 = system: IGROV-1
NCI-H226 = system: NCI-H226
Malme-3M = system: Malme-3M
A549 = system: A549
RPMI-8226 = system: RPMI-8226
SR = system: SR
DU-145 = system: DU-145
SNB-19 = system: SNB-19
A498 = system: A498
KM12 = system: KM12
PC-3 = system: PC-3
RXF 393 = system: RXF 393
UO-31 = system: UO-31

Measured: GI50

CN(C)CCNC(=O)c1ccc(NCCCN(C)CCCNc2ccc(C(=O)NCCN(C)C)c3nc4ccc([N+](=O)[O-])cc4c(O)c23)c2c(O)c3cc([N+](=O)[O-])ccc3nc12
0.368 µM: HCT-15
inactive: NCI/ADR-RES 1.23 µM
active: SF-539 0.0186 µM | UACC-257 0.385 µM | MDA-MB-435 0.0861 µM | OVCAR-5 0.158 µM | SK-OV-3 0.232 µM | CCRF-CEM < 0.01 µM | HCT-116 < 0.01 µM | OVCAR-4 0.127 µM | CAKI-1 0.757 µM | SNB-75 0.14 µM | 786-0 < 0.0197 µM | MDA-N 0.155 µM | UACC-62 0.0538 µM | M14 0.5 µM | K562 0.0135 µM | HL-60 0.0277 µM | MCF7 < 0.01 µM | SN12C < 0.01 µM | U-251 < 0.01 µM | BT-549 0.447 µM | TK-10 0.124 µM | HCC 2998 0.0347 µM | NCI-H23 0.126 µM | ACHN < 0.0121 µM | HT-29 < 0.0182 µM | SK-MEL-5 0.0346 µM | SK-MEL-28 0.157 µM | MDA-MB-231 0.05 µM | OVCAR-8 < 0.01 µM | T47D 0.32 µM | SK-MEL-2 0.0111 µM | SF-268 0.065 µM | Hs-578T 0.0798 µM | MOLT-4 < 0.01 µM | SW-620 < 0.01 µM | HOP-92 0.0431 µM | NCI-H522 < 0.01 µM | LOX IMVI < 0.01 µM | OVCAR-3 0.186 µM | NCI-H460 < 0.01 µM | SF-295 0.0495 µM | EKVX 0.301 µM | HOP-62 0.154 µM | COLO 205 < 0.0133 µM | IGROV-1 < 0.01 µM | NCI-H226 < 0.01 µM | Malme-3M 0.126 µM | A549 < 0.01 µM | RPMI-8226 < 0.01 µM | SR 0.0311 µM | DU-145 < 0.0272 µM | SNB-19 < 0.0146 µM | A498 0.116 µM | KM12 0.04 µM | PC-3 < 0.01 µM | RXF 393 0.101 µM | UO-31 0.154 µM

COc1cc(/C=C/C(=N\NC(=S)NN)c2sc(NNC(C)=O)nc2C)ccc1O
> 100 µM: HCT-15
inactive: SF-539 > 100 µM | UACC-257 > 100 µM | MDA-MB-435 > 100 µM | OVCAR-5 > 100 µM | SK-OV-3 > 100 µM | CCRF-CEM > 100 µM | HCT-116 > 100 µM | NCI/ADR-RES > 100 µM | OVCAR-4 > 100 µM | CAKI-1 > 100 µM | SNB-75 > 100 µM | 786-0 > 100 µM | MDA-N > 100 µM | UACC-62 > 100 µM | M14 > 100 µM | K562 > 100 µM | HL-60 > 100 µM | MCF7 > 100 µM | SN12C > 100 µM | U-251 > 100 µM | BT-549 > 100 µM | TK-10 > 100 µM | HCC 2998 > 100 µM | NCI-H23 > 100 µM | ACHN > 100 µM | HT-29 > 100 µM | SK-MEL-5 > 100 µM | SK-MEL-28 > 100 µM | MDA-MB-231 > 100 µM | OVCAR-8 > 100 µM | T47D > 100 µM | SK-MEL-2 > 100 µM | SF-268 > 100 µM | Hs-578T > 100 µM | MOLT-4 > 100 µM | SW-620 > 100 µM | HOP-92 > 100 µM | NCI-H522 > 100 µM | LOX IMVI > 100 µM | OVCAR-3 > 100 µM | NCI-H460 > 100 µM | SF-295 > 100 µM | EKVX > 100 µM | HOP-62 > 100 µM | COLO 205 > 100 µM | IGROV-1 > 100 µM | NCI-H226 > 100 µM | Malme-3M > 100 µM | A549 > 100 µM | RPMI-8226 > 100 µM | SR > 100 µM | DU-145 > 100 µM | SNB-19 > 100 µM | A498 > 100 µM | KM12 66.2 µM | PC-3 > 100 µM | RXF 393 > 100 µM | UO-31 > 100 µM

CCCCC1Cc2cc(OC)ccc2-c2n1c1cc(OC)ccc1[n+]2C.CCCCC1Cc2cc(OC)ccc2-c2n1c1ccc(OC)cc1[n+]2C (centres undefined)
21.7 µM: HCT-15
inactive: SF-539 3.34 µM | OVCAR-5 9.77 µM | SK-OV-3 10 µM | CCRF-CEM 2.64 µM | HCT-116 3.22 µM | NCI/ADR-RES > 100 µM | OVCAR-4 2.31 µM | CAKI-1 35.8 µM | SNB-75 6.19 µM | 786-0 7.13 µM | MDA-N 1.47 µM | M14 3.76 µM | BT-549 1.66 µM | TK-10 2.18 µM | ACHN 12.6 µM | HT-29 1.97 µM | SK-MEL-28 6.3 µM | MDA-MB-231 2.63 µM | OVCAR-8 2.75 µM | SK-MEL-2 2.46 µM | SF-268 1.3 µM | Hs-578T 2.77 µM | MOLT-4 4.79 µM | SW-620 2.82 µM | LOX IMVI 2.87 µM | OVCAR-3 1.4 µM | NCI-H460 3.65 µM | SF-295 2.39 µM | HOP-62 6.08 µM | IGROV-1 1.6 µM | NCI-H226 2.92 µM | A549 1.48 µM | SR 2.44 µM | DU-145 5.32 µM | A498 16.9 µM | PC-3 2.6 µM | RXF 393 14.2 µM | UO-31 15.5 µM
active: UACC-257 1.04 µM | MDA-MB-435 0.944 µM | UACC-62 0.528 µM | K562 0.475 µM | HL-60 0.261 µM | MCF7 0.953 µM | SN12C 0.975 µM | U-251 0.332 µM | HCC 2998 0.703 µM | NCI-H23 0.839 µM | SK-MEL-5 0.764 µM | T47D 0.656 µM | HOP-92 0.427 µM | NCI-H522 0.681 µM | EKVX 0.466 µM | COLO 205 0.401 µM | Malme-3M 0.935 µM | RPMI-8226 0.221 µM | SNB-19 0.904 µM | KM12 0.873 µM

CN(C)c1ccc(/C=C(\NC(=O)c2ccccc2)C2NC(Cc3c[nH]c4ccccc34)C(=O)O2)cc1 (centres undefined)
inactive: UACC-257 40.6 µM | MDA-MB-435 10.8 µM | OVCAR-5 > 83.6 µM | SK-OV-3 > 59.4 µM | CCRF-CEM 8.91 µM | HCT-116 19.2 µM | NCI/ADR-RES > 100 µM | OVCAR-4 12.3 µM | CAKI-1 > 59 µM | SNB-75 39.4 µM | 786-0 12.2 µM | MDA-N 34.8 µM | UACC-62 > 82.6 µM | M14 42.2 µM | K562 10.9 µM | HL-60 6.65 µM | MCF7 6.65 µM | SN12C > 28.5 µM | U-251 4.49 µM | BT-549 12.1 µM | HCC 2998 6.12 µM | NCI-H23 14 µM | ACHN 8.85 µM | HT-29 3.25 µM | SK-MEL-5 8.85 µM | SK-MEL-28 > 100 µM | MDA-MB-231 > 50.4 µM | OVCAR-8 5.98 µM | T47D > 54 µM | SK-MEL-2 27.3 µM | SF-268 11.6 µM | Hs-578T 11.2 µM | MOLT-4 16.6 µM | SW-620 9.42 µM | HOP-92 > 24.1 µM | NCI-H522 3.46 µM | LOX IMVI > 24.8 µM | OVCAR-3 60.8 µM | NCI-H460 3.19 µM | SF-295 36.1 µM | EKVX 8.99 µM | HOP-62 41.2 µM | COLO 205 4.06 µM | IGROV-1 5.37 µM | NCI-H226 > 100 µM | Malme-3M 21.4 µM | A549 5.16 µM | RPMI-8226 6.71 µM | SR 41.8 µM | DU-145 > 100 µM | SNB-19 12 µM | A498 > 93.1 µM | KM12 6.71 µM | PC-3 27.4 µM | RXF 393 > 91 µM | UO-31 17.3 µM
14.3 µM: HCT-15
